“Also recorded” adds a separate entry of the source. Values belong to the molecule of their own block, whether it stands above or below them.
Key:
[1] = target: T1, Cathepsin B (Homo sapiens, UniProt P07858); experiment: Cathepsin B endopeptidase activity, enzyme kinetics with substrate Z-RR-AMC; assay type: biochemical; conditions: endopeptidase activity, substrate Z-RR-AMC, pH 6.0, 37°C
Procedure: The effect of 8-hydroxyquinolines on cathepsin B enzymatic activity was assessed using enzyme kinetics. First, the effect of 8-hydroxyquinolines on cathepsin B endopeptidase activity was assessed using the cathepsin B specific endopeptidase substrate Z-RR-AMC. 5 µl of the Z-RR-AMC (final concentration 60, 180 and 360 µM) and 5 µl of respective compound at increasing concentrations were added to wells of a black microplate. 90 µl of human recombinant cathepsin B was then added to a final concentration of 0.4 nM in activation buffer (100 mM phosphate buffer, pH 6.0 with 0.1 % PEG, 5 mM DTT and 1.5 mM EDTA). All assay mixtures contained a constant amount of DMSO, i.e. 5 %. Formation of fluorescent degradation product was continuously monitored at 380 nm ± 20 nm excitation and […] ± 10 nm emission wavelengths on Tecan Safire^2™ at 37°C. Mechanism and the constant of inhibition (Ki) of cathepsin B endopeptidase activity were determined using the graphical method according to Cornish-Bowden (Cornish-Bowden A: A Simple Graphical Method for Determining the Inhibition Constants of Mixed, Uncompetitive and Non-Competitive Inhibitors. Biochem J 1974, 137:143-4.) and using the SigmaPlot® 11, Enzyme Kinetics Module™ 1.3. Table I. Results of testing the compounds according to Formula (I) on cathepsin B endopeptidase activity.

[2] = target: T1, Cathepsin B; conditions: cited from earlier work; for less potent in vitro than parent inhibitor: esterified cell permeable derivatives versus E-64 and CA-074; for inhibit cathepsin B: background
[3] = test system: MCF-10A neoT cells; experiment: Intracellular DQ-collagen IV degradation by flow cytometry; assay type: cell-based; conditions: 50 µM, shift in fluorescence intensity
Procedure: Inhibition of intracellular DQ-collagen IV degradation was observed by flow cytometry by a shift in fluorescence intensity. 5 × 10^4 MCF-10A neoT cells in complete medium were plated into the wells of a 24-well plate and allowed to attach over night. Afterwards, the medium was replaced with 500 µl of serum free medium with 5-nitro-8-hydroxyquinoline, CA-074 or CA-074Me (50 µM). After 2 h incubation the medium was again replaced with serum free medium containing inhibitors (50 µM) and DQ-collagen IV (5 µg/ml). DMSO was used as a control. For the experiment only viable cells were selected using propidium iodide. The measurements were performed on a FACS Calibur instrument (Beckton Dickinson, Inc.).

[4] = test system: MCF-10A neoT cells; experiment: Extracellular DQ-collagen IV degradation, fluorescence intensity in medium; assay type: cell-based; conditions: 3 h, DQ-collagen IV 5 µg/ml
Procedure: Two experiments were set to differentiate between inhibition of intracellular and extracellular DQ-collagen IV degradation. Inhibition of extracellular DQ-collagen IV degradation was observed by monitoring the fluorescence intensity of degraded DQ-collagen IV in the medium in which MCF-10A neoT cells were grown. 5 × 10^4 MCF-10A neoT cells were plated into wells of a 96-well black plate and were allowed to attach over night. Cells were then incubated with 100 µl PBS containing 5-nitro-8-hydroxyquinoline, CA-074 or CA-074Me (10 µM) and DQ-collagen IV (5 µg/ml) for 3 h. Afterwards, the 80 µl of PBS was transferred into the empty wells and the fluorescence intensity was measured at 495 nm ± 5 nm excitation and 515 nm ± 5 nm emission wavelengths on Tecan Safire^2™. The experiment was performed in 8 parallels and DMSO was used as a control.

[5] = target: T1, Cathepsin B; experiment: Reversibility by mass spectrometry (ESI-MS of cathepsin B after incubation and dialysis); assay type: binding; conditions: equimolar inhibitor, 1 h room temperature, dialysis
Procedure: Third, reversibility of 5-nitro-8-hydroxyquinoline was also checked with mass spectrometry. Cathepsin B (4.4 µM) was activated in the activation buffer for 5 min at 37 °C. Afterwards, an equimolar amount of the inhibitor was added to the enzyme and incubated for 1 h at room temperature. The mixture was dialyzed against water five times using Microcon Centrifugal Filter Devices YM-10 to avoid salt interferences and to remove unbound molecules of the test compound. Samples were then prepared by adding an equal volume of acetonitrile containing 0.1 % formic acid and analyzed with ESI-MS on an AutoSpec Q instrument. As a positive control CA-074 was used.

[6] = target: T1, Cathepsin B; experiment: Reversibility with active site probe DCG-04 (labelling, SDS-PAGE, blot); assay type: binding; conditions: 0.1, 1, 10 and 50 µM inhibitor, 1 h, then 2 µM DCG-04
Description: Second, the reversibility of 5-nitro-8-hydroxyquinoline was also studied with the active site probe DCG-04. DCG-04 is a derivative of an irreversible epoxysuccinic inhibitor of cysteine proteases E-64 with an additional biotin moiety which enables detection of covalently modified proteases with labelling intensity correlating with enzymatic activity (Greenbaum D, Medzihradszky KF, Burlingame A, Bogyo M: Epoxide electrophiles as activity-dependent cysteine protease profiling and discovery tools. Chem Biol 2000, 7: 569-81.). 1 µg of recombinant cathepsin B in 50 mM Tris, pH 5.5 containing 1 mM DTT, 5 mM MgCl2 and 250 mM sucrose was incubated with 0.1, 1, 10 in 50 µM 5-nitro-8-hydroxyquinoline (diluted from 10 mM DMSO stocks) for 1 h at room temperature. Samples were then labelled with 2 µM DCG-04 for an additional h at room temperature. After boiling in reducing sample buffer for 10 min samples were analyzed by 12.5 % SDS-PAGE and transferred to a nitrocellulose membrane. The latter was then blocked with 0.5 % Tween 20 in PBS overnight at 4 °C and incubated with 1 µg/ml streptavidin-horseradish peroxidase in 0.2 % Tween 20 in PBS for 1 h at room temperature. The membrane was washed five times with 0.2 % Tween 20 in PBS and the spots on the membrane were visualized with 0.5 mg/ml 3,3'-diaminobenzidine and 0.0005 % (v/v) H2O2 in 50 mM Tris, pH 7.5. […]

Ki [1]: 130 ± 3.5 µM
SMILES: CC1CCN(Cc2cc([N+](=O)[O-])c3cccnc3c2O)CC1 [Compound 6, 7-((4-Methypiperidin-1-yl)methyl)-5-nitro-8-hydroxyquinoline]

SMILES: CCCNC(=O)[C@H]1O[C@@H]1C(=O)N[C@H](C(=O)N1CCC[C@H]1C(=O)OC)[C@@H](C)CC [CA-074Me]
less potent in vitro than parent inhibitor [2]: 100-1000 fold | inhibition of intracellular DQ-collagen IV degradation [3]: significantly inhibited | inhibition of extracellular DQ-collagen IV degradation ([4]; 10 µM): 33.8%

Ki [1]: 110 ± 3.1 µM
SMILES: O=[N+]([O-])c1cc(CN2CCCC(O)C2)c(O)c2ncccc12 (racemic) [Compound 8, 7-((3-Hydroxypiperidin-1-yl)methyl)-5-nitro-8-hydroxyquinoline]

SMILES: CCCNC(=O)[C@H]1O[C@@H]1C(=O)N[C@H](C(=O)N1CCC[C@H]1C(=O)O)[C@@H](C)CC [CA-074]
change of mass of the enzyme [5]: 384 Da | inhibit cathepsin B [2]: nanomolar range | inhibition of intracellular DQ-collagen IV degradation [3]: only slightly inhibited; also recorded: did not | inhibition at 10 µM ([4]; Homo sapiens, MCF-10A-neoT): 31.1% | intensity of spots (DCG-04 labelling) versus DMSO control [6]: concentration dependent loss of spot intensity

Ki [1]: 118 ± 3.1 µM
SMILES: O=[N+]([O-])c1cc(CN2CCCC2)c(O)c2ncccc12 [Compound 3, 7-(Pyrrolidinomethyl)-5-nitro-8-hydroxyquinoline]

SMILES: CC(C)C[C@H](NC(=O)[C@H]1O[C@@H]1C(=O)O)C(=O)NCCCCN=C(N)N [Compound E-64]
inhibit cathepsin B [2]: nanomolar range

Ki [1]: 119 ± 4.2 µM
SMILES: O=[N+]([O-])c1cc(CN2CCOCC2)c(O)c2ncccc12 [Compound 2, 7-(Morpholinomethyl)-5-nitro-8-hydroxyquinoline]

Ki [1]: 89 ± 3.3 µM
SMILES: O=C(O)C1CCN(Cc2cc([N+](=O)[O-])c3cccnc3c2O)CC1 [Compound 7, 7-((4-Carboxypiperidin-1-yl)methyl)-5-nitro-8-hydroxyquinoline]

SMILES: CCOC(=O)[C@H]1O[C@@H]1C(=O)N[C@@H](CC(C)C)C(=O)NCCC(C)C [Compound E-64d]
less potent in vitro than parent inhibitor [2]: 100-1000 fold

Ki [1]: 130 ± 3.4 µM
SMILES: O=[N+]([O-])c1cc(CN2CCC(O)CC2)c(O)c2ncccc12 [Compound 5, 7-((4-Hydroxypiperidin-1-yl)methyl)-5-nitro-8-hydroxyquinoline]

Ki [1]: 75.6 ± 4 µM
SMILES: CN1CCN(Cc2cc([N+](=O)[O-])c3cccnc3c2O)CC1 [Compound 4, 7-((4-Methylpiperazin-1-yl)methyl)-5-nitro-8-hydroxyquinoline]

Reference: EP2353599A1, “8-hydroxyquinolines as inhibitors of cathepsin B” (University of Ljubljana, priority 2010, dated 2011)
